Laboratory results as given in patent publication US10881699B2, “Cosmetic compositions” (Mary Kay Inc., priority 2014, dated 2021).

Columns and labels:
[1] = test system: procollagen peptide production by human epidermal fibroblasts; test: Collagen stimulation assay, procollagen peptide ELISA; format: cell-based; conditions: treated for 3 days
Text: Collagen Stimulation Assay:
Collagen is an extracellular matrix protein critical for skin structure. Increased synthesis of collagen helps improve skin firmness and elasticity. This bioassay can be used to examine the effect of any one of the active ingredients, combination of ingredients, or compositions having said combinations disclosed in the specification on the production of procollagen peptide (a precursor to collagen) by human epidermal fibroblasts. The endpoint of this assay is a spectrophotometric measurement that reflects the presence of procollagen peptide and cellular viability. The assay employs the quantitative sandwich enzyme immunoassay technique whereby a monoclonal antibody specific for procollagen peptide was been pre-coated onto a microplate. […] Following a wash to remove any unbound antibody-enzyme reagent, a substrate solution was added to the wells and color develops in proportion to the amount of procollagen peptide bound in the initial step using a microplate reader for detection at 450 nm. The color development was stopped and the intensity of the color was measured. […] Following incubation, cell culture medium was collected and the amount of procollagen peptide secretion quantified using a sandwich enzyme linked immuno-sorbant assay (ELISA) from Takara (#MK101).

MMP3 = biological target: T1, MMP3 (Homo sapiens, UniProt P08254); test: Matrix metalloproteinase enzyme activity assay, MMP3; format: biochemical; conditions: thiopeptide chromogenic substrate
T1 construct: purchased BioMol International AK-400
T1 sequence (P08254 100-272 limits assumed): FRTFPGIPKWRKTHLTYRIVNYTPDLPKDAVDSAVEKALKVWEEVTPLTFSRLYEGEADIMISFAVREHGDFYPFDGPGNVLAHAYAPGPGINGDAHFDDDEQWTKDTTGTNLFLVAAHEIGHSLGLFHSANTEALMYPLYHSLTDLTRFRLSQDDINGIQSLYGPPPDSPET
Text: (§1) Matrix Metalloproteinase Enzyme Activity (MMP3; MMP9) Assay: An in vitro matrix metalloprotease (MMP) inhibition assay. MMPs are extracellular proteases that play a role in many normal and disease states by virtue of their broad substrate specificity. MMP3 substrates include collagens, fibronectins, and laminin; while MMP9 substrates include collagen VII, fibronectins and laminin. Using Colorimetric Drug Discovery kits from BioMol International for MMP3 (AK-400) and MMP-9 (AK-410), this assay is designed to measure protease activity of MMPs using a thiopeptide as a chromogenic substrate (Ac-PLG42-mercapto-4-methyl-pentanoylRG-OC2H5)5,6. The MMP cleavage site peptide bond is replaced by a thioester bond in the thiopeptide. Hydrolysis of this bond by an MMP produces a sulfhydryl group, which reacts with DTNB [5,5′-dithiobis(2-nitrobenzoic acid), Ellman's reagent] to form 2-nitro-5-thiobenzoic acid, which can be detected by its absorbance at 412 nm (c=13,600 M-1 cm-1 at pH 6.0 and above 7). The active ingredients, any one of the combination of ingredients, or compositions having said combinations disclosed in the specification can be assayed.

MMP9 = biological target: T2, MMP9 (Homo sapiens, UniProt P14780); test: Matrix metalloproteinase enzyme activity assay, MMP9; format: biochemical; conditions: thiopeptide chromogenic substrate
T2 construct: purchased BioMol International AK-410
T2 sequence (P14780 107-444 limits assumed): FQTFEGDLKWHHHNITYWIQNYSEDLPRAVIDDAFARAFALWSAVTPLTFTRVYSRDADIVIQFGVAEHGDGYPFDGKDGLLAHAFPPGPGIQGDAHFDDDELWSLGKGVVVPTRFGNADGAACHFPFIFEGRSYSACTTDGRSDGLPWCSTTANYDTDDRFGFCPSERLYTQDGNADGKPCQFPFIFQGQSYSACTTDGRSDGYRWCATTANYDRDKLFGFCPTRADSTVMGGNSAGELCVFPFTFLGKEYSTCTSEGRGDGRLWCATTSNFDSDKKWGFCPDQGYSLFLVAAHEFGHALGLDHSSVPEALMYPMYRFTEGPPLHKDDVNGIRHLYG
Text: as §1

Molecule | % Increase of Type I Collagen Production [1] | % MMP3 Activity (MMP3) | % MMP9 Activity (MMP9)
CCCCCCCCC(CCCCCC)C(=O)OC[C@H](OC(=O)C(CCCCCC)CCCCCCCC)[C@H]1OC(=O)C(OC(=O)C(CCCCCC)CCCCCCCC)=C1OC(=O)C(CCCCCC)CCCCCCCC (stereo partly shown) [Tetrahexyldecyl ascorbate] | 50% | 38% | 11%
Trifluoroacetyl tripeptide-2 | 23% | – | –
